Test [1] has as its target T1, hu-mPRα (Homo sapiens, UniProt Q86WK9).
T1 sequence (Q86WK9 1-346): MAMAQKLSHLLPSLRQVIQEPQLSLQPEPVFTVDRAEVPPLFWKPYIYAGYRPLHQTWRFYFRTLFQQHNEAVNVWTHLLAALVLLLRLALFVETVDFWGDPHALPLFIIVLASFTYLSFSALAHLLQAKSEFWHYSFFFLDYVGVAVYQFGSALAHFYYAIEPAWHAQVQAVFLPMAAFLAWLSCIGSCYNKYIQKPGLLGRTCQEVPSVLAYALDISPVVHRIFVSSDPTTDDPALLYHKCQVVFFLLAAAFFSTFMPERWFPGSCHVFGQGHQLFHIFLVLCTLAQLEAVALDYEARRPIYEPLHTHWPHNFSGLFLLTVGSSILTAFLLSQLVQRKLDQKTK
As to the kind of experiment: hu-mPRα steroid binding assay. The note with it: for RBA (Relative Binding Affinity): compared with progesterone (=100), human mPRα; for binding to hu-mPRα (in words): this study, Fig. 1, Table 1.

Test [2] concerns the target T1, hu-mPRα. The note with it: cited from earlier work; for binding affinity for nPR compared with mPRα: selectivity in words.
Another test addresses T2, human nPR (Homo sapiens, UniProt P06401).
T2 sequence (P06401 679-933 limits assumed): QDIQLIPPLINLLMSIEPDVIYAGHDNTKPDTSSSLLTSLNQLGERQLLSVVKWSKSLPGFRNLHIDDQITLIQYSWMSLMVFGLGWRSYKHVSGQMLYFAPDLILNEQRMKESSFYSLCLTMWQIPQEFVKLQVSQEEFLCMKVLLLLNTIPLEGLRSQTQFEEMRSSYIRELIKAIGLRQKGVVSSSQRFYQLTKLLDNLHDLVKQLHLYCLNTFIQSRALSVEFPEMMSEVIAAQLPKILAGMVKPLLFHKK
The note with it: cited from earlier work; for pIC50 (mean): 50% displacement of [3H] Org 2058, extracted from log RBA; for logRBA: RBA (%) compared with that of Org 2058 (=100%). In general terms: In a radioligand displacement assay an active substance lowers the binding of a labelled ligand.

Entries after “also recorded” stand apart in the source; their conditions may differ. Where two headings read alike, the source gives them in different places. A value given as a limit tells only on which side of the number the result lay.

3,20-dioxopregn-4-ene-18-carbonitrile: on hu-mPRα [1], the “RBA (Relative Binding Affinity)” value came to 1.8% and the “binding to hu-mPRα (in words)” value was “low binding affinities”.

Consider `C#CC1(O)CC[C@H]2[C@@H]3CCC4=CC(=O)CC[C@@H]4[C@H]3CC[C@@]21CC` (mixture of isomers) [norgestrel], for which the “binding affinity for nPR compared with mPRα” value on hu-mPRα [2] is reported as “greater binding affinity for nPR than mPRα”.

In the case of `CC(=O)[C@H]1CC[C@H]2[C@@H]3CCC4=CC(=O)[C@H](O)C[C@]4(C)[C@H]3CC[C@]12C` [2α-hydroxyprogesterone], the “binding to hu-mPRα (in words)” value at hu-mPRα [2] (earlier series) is “poor binding”.

For the compound `CC(=O)[C@H]1CC[C@H]2[C@@H]3CCC4=CC(=O)[C@H](C#N)C[C@]4(C)[C@H]3CC[C@]12C` [3,20-Dioxopregn-4-ene-2α-carbonitrile], on hu-mPRα [1], the “RBA (Relative Binding Affinity)” value is on record as less than 1% and the “binding to hu-mPRα (in words)” value is listed as “inactivity”.

One may read the IC50 as the concentration that inhibits the measured activity by half. Higher therefore signals lower potency. Consider `CC(=O)[C@H]1CC[C@H]2[C@@H]3CC[C@H]4C[C@H](O)CC[C@]4(C)[C@H]3CC[C@]12C` [3α-Hydroxy-5α-pregnan-20-one], for which, on hu-mPRα [1], the half-inhibitory concentration (IC50) came to 1150 nM and the “RBA (Relative Binding Affinity)” value is reported as 7.6%.

As for `CC(=O)[C@H]1CC[C@H]2[C@@H]3CC[C@H]4C[C@@H](O)CC[C@]4(C)[C@H]3CC[C@]12C` [3β-Hydroxy-5α-pregnan-20-one], the “binding to hu-mPRα (in words)” value on hu-mPRα [1] was “absence of binding”.

On to `C[C@]12CC[C@H]3[C@@H](CC[C@H]4CC(=O)CC[C@@H]43)[C@@H]1CC[C@@H]2O` [5α-Dihydronandrolone], for which, on human nPR, the “pIC50 (mean)” value is 6.50 and the logRBA is −0.22.

Turning to `C[C@]12CCC(=O)C[C@@H]1CC[C@@H]1[C@@H]2CC[C@]2(C)[C@@H](O)CC[C@@H]12` [5α-Dihydrotestosterone (DHT), 5α-Dihydrotestosterone], on human nPR, the “pIC50 (mean)” value was 6.16 and the logRBA was −0.56.

`CC(=O)S[C@@H]1CC2=CC(=O)CC[C@]2(C)[C@H]2CC[C@]3(C)[C@@H](C(C)=O)CC[C@H]3[C@H]12` [7α-Acetylthioprogesterone (Org 33718-0), 7α-Acetylthioprogesterone]: the “RBA (Relative Binding Affinity)” value at hu-mPRα [1] is on record as less than 1%.

Regarding `CC(=O)[C@H]1CC[C@H]2[C@@H]3CCC4=CC(=O)CC[C@]4(C)[C@H]3[C@@H](O)C[C@]12C` [11β-hydroxyprogesterone], the “lower binding affinity relative to progesterone” value on hu-mPRα [2] (mPRα, observed earlier) is recorded as 10 fold.

For the compound `CCC1CC2C3CCC4=CC(=O)CCC4C3CCC2(C)C1C(=O)CO` (stereo not drawn) [16α-ethyl-21-hydroxy-19-norpregn-4-ene-3,20-dione], the logRBA on human nPR is given as 2.00. For the same compound, the “binding to hu-mPRα (in words)” value at hu-mPRα [2] (earlier series) is “poor binding affinities”. For the same compound, the “binding affinity for nPR compared with mPRα” value at hu-mPRα [2] was “greater binding affinity for nPR than mPRα”.

In the case of `CCCCCC(=O)O[C@]1(C(C)=O)CC[C@H]2[C@@H]3CCC4=CC(=O)CC[C@]4(C)[C@H]3CC[C@@]21C` [17-Caproylprogesterone], the “RBA (Relative Binding Affinity)” value on hu-mPRα [1] is on record as 4.4%.

`C[C@]12CC[C@H]3[C@@H](CCC4=CC(=O)CC[C@@]43C)[C@@H]1CC[C@H]2O` [17-Epitestosterone]: the “RBA (Relative Binding Affinity)” value at hu-mPRα [1] was 2.8%.

For the compound `CC[C@]1(O)CC[C@H]2[C@@H]3CCC4=CC(=O)CC[C@@H]4[C@H]3CC[C@@]21C` [17-Hydroxy-19-nor-17α-pregn-4-en-3-one], at human nPR, the “pIC50 (mean)” value was 8.24 and the logRBA was 1.52.

In the case of `C[C@@H]1C=C2CC(=O)CC[C@]2(C)[C@H]2CC[C@]3(C)[C@@H](O)CC[C@H]3[C@H]12` [17β-Hydroxy-7α-methylandrost-5-en-3-one], on hu-mPRα [1], the IC50 came to 2880 nM and the “RBA (Relative Binding Affinity)” value was 3.0%. At hu-mPRα [1] (mPRα, compared with testosterone of ref 10), the “decrease in binding relative to testosterone” value is on record as 10 fold.

For the compound `CC(C)[C@@H]1C[C@H]2[C@@H]3CCC4=CC(=O)CC[C@@H]4[C@H]3CC[C@]2(C)[C@H]1O` [17β-Hydroxy-16α-isopropylestr-4-en-3-one], at human nPR, the “pIC50 (mean)” value is 7.72 and the logRBA was 1.00.

For the compound `C[C@]1(O)CC[C@H]2[C@@H]3CCC4=CC(=O)CC[C@@H]4[C@H]3CC[C@@]21C` [17β-Hydroxy-17α-methylestr-4-en-3-one], at human nPR, the “pIC50 (mean)” value is 7.66 and the logRBA is 0.94.

`CC(=O)[C@H]1CC[C@H]2[C@@H]3CCC4=CC(=O)CC[C@]4(CO)[C@H]3CC[C@]12C` [19-Hydroxyprogesterone]: on hu-mPRα [1], the “RBA (Relative Binding Affinity)” value is listed as 0.7% and the “binding to hu-mPRα (in words)” value is recorded as “low binding affinities”.

Regarding `CC(=O)[C@H]1CC[C@H]2[C@@H]3CCC4=CC(=O)CC[C@@H]4[C@H]3CC[C@]12C` [19-Norprogesterone], on human nPR, the “pIC50 (mean)” value is 8.53 and the logRBA is recorded as 1.81. Also, the “binding affinity for nPR compared with mPRα” value at hu-mPRα [2] was “greater binding affinity for nPR than mPRα”.

Consider `C=CC[C@]1(O)CC[C@H]2[C@@H]3CCC4=CCCC[C@@H]4[C@H]3CC[C@@]21C` [Allylestrenol], for which, on human nPR, the “pIC50 (mean)” value is recorded as 7.04 and the logRBA is listed as 0.32.

As to `C[C@]12CCC(=O)C=C1CC[C@@H]1[C@@H]2CC[C@]2(C)C(=O)CC[C@@H]12` [Androst-4-ene-3,17-dione], at human nPR, the “pIC50 (mean)” value is 6.02 and the logRBA is on record as −0.70. Besides, the “binding to hu-mPRα (in words)” value at hu-mPRα [1] is listed as “unable to bind”.

Take `C[C@]12CCC(=O)C=C1CC[C@@H]1[C@@H]2CC[C@@]2(C)[C@H]1CC[C@]2(O)C(=O)CO` [Cortexolone (11-deoxycortisol), 11-deoxycortisol]: at hu-mPRα [1], the IC50 was 4850 nM, the “RBA (Relative Binding Affinity)” value is 1.8% and the “binding to hu-mPRα (in words)” value is recorded as “less potent than deoxycorticosterone”.

`C[C@]12CCC(=O)C=C1CC[C@@H]1[C@@H]2[C@@H](O)C[C@@]2(C)[C@H]1CC[C@]2(O)C(=O)CO` [Cortisol (hydrocortisone), Cortisol]: the “binding to hu-mPRα (in words)” value on hu-mPRα [1] was “complete loss of affinity”.

Take `C[C@]12CC[C@@H]3c4ccc(O)cc4CC[C@H]3[C@@H]1CC[C@@H]2O` [Estradiol-17β]: the “binding to hu-mPRα (in words)” value on hu-mPRα [1] is “no binding affinity”.

On to `C#C[C@]1(O)CC[C@H]2[C@@H]3CCC4=CC(=O)CC[C@]4(C)[C@H]3CC[C@@]21C` [Ethisterone], for which, on hu-mPRα [2], the “binding affinity for nPR compared with mPRα” value is on record as “greater binding affinity for nPR than mPRα”.

Consider `CC[C@]1(O)CC[C@H]2[C@@H]3CCC4=CCCC[C@@H]4[C@H]3CC[C@@]21C` [Ethylestrenol], for which, at human nPR, the “pIC50 (mean)” value is listed as 7.21 and the logRBA is listed as 0.49.

Consider `C#C[C@]1(O)CC[C@H]2[C@@H]3CCC4=CCCC[C@@H]4[C@H]3CC[C@@]21C` [Lynestrenol], for which, at human nPR, the “pIC50 (mean)” value is listed as 6.95 and the logRBA is on record as 0.23.

As to `CC#C[C@]1(O)CC[C@H]2[C@@H]3CCC4=CC(=O)CCC4=C3[C@@H](c3ccc(N(C)C)cc3)C[C@@]21C` [Mifepristone], the “binding to hu-mPRα (in words)” value on hu-mPRα [2] (earlier series, listed as RU486) is listed as “little or no affinity; also recorded: does not bind”.

Consider `C[C@]12CC[C@H]3[C@@H](CCC4=CC(=O)CC[C@@H]43)[C@@H]1CC[C@@H]2O` [Nandrolone, 19-nortestosterone], for which, on human nPR, the “pIC50 (mean)” value is reported as 7.20 and the logRBA is on record as 0.48.

For `CC(=O)[C@H]1CC[C@H]2[C@@H]3CCC4=CC(=O)C=C[C@]4(C)[C@H]3CC[C@]12C` [Pregna-1,4-diene-3,20-dione], on hu-mPRα [1], the IC50 worked out at 93.5 nM, the “RBA (Relative Binding Affinity)” value was determined as 93.5% and the “binding to hu-mPRα (in words)” value is reported as “little or no influence relative to the progesterone response”.

Consider `CC(=O)[C@H]1CC[C@H]2[C@@H]3C=CC4=CC(=O)CC[C@]4(C)[C@H]3CC[C@]12C` [Pregna-4,6-diene-3,20-dione], for which, on hu-mPRα [1], the IC50 amounted to 88.4 nM, the “RBA (Relative Binding Affinity)” value is 98.9% and the “binding to hu-mPRα (in words)” value is “little or no influence relative to the progesterone response”.

As for `CC(=O)[C@H]1CC[C@H]2[C@@H]3CCC4=CC(=O)CC[C@]4(C)[C@H]3CC[C@]12C` [Progesterone], the concentration for half-maximal inhibition (IC50) at hu-mPRα [1] came out at 87.4 nM.

For `CCC(=O)[C@@]1(C)CC[C@H]2[C@@H]3CCC4=CC(=O)CCC4=C3CC[C@@]21C` [Promegestone], at human nPR, the “pIC50 (mean)” value is reported as 8.90 and the logRBA is listed as 2.18. The “binding to hu-mPRα (in words)” value at hu-mPRα [2] (earlier series, listed as R5020) was “little or no affinity; also recorded: poor binding affinities”.

`C[C@]12CC[C@H]3[C@@H](CCC4=CC(=O)CC[C@@]43C)[C@@H]1CC[C@@H]2O` [Testosterone]: on human nPR, the “pIC50 (mean)” value is recorded as 6.02 and the logRBA was −0.70. Besides, at hu-mPRα [2] (progesterone = 100 %, earlier series), the “RBA for hu-mPRα” value was 22.4%.

As to `C#C[C@]1(O)CC[C@H]2[C@@H]3CCC4=CC(=O)CC[C@@H]4[C@H]3CC[C@@]21C` [norethisterone], the “binding affinity for nPR compared with mPRα” value at hu-mPRα [2] was “greater binding affinity for nPR than mPRα”.
